# pIC50: −log10 of the molar value.
# What was measured:
# thioredoxin (TRX) = target: T1, thioredoxin (TRX) (Homo sapiens, UniProt P10599); assay: Insulin-based turbidometric assay of thiol isomerase inhibitory activity (thioredoxin); format: biochemical; details: insulin turbidity assay, 6 point dose curve
# T1 construct: purchased AbCam (Cambridge Mass.)
# T1 sequence (P10599 1-105): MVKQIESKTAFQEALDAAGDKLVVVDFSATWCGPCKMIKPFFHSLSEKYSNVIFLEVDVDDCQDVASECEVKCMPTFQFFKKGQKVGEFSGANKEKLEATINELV
# Text: Recombinant thiol isomerases were purchased from AbCam (Cambridge Mass.), recombinant insulin (bovine), bacitracin, dithiothreitol (DTT) buffers and all other chemicals were purchased from Sigma Aldrich (St. Louis, Mo.; while 384 well clear bottom plates were purchased from Corning (Corning, N.Y.).
# The catalytic reduction of insulin by thiol isomerases in the presence of DTT results in aggregation of insulin chains. The turbidity of insulin aggregation can be monitored spectrophotometrically at an optical density (OD) at 650 nm. This approach has been used by multiple groups to identify thiol isomerase inhibitors in either a kinetic or endpoint fashion. A final concentration of either 10 μg/mL PDI, 30 μg/mL ERp5, 10 μg/mL ERp72 or 10 μg/mL thioredoxin, 125 μM insulin and 2 mM ethylenediaminetetraacetic acid (EDTA) in 30 μL of 100 mM potassium phosphate buffer was added to each experimental well plate, while negative control wells lacked any thiol isomerase. Lead compounds were diluted in a 6 point dose curve and the turbidity of insulin aggregation was measured kinetically each minute for 75 minutes using a Spectramax M3 plate reader (Molecular Devices, Sunnyvale, Calif.) Specificity assay utilized the insulin turbidity assay as well.
# [1] = test system: platelets (fibrinogen receptor αIIbβ3); assay: Fibrinogen binding to αIIbβ3 by flow cytometry; format: cell-based, human
# Description: (§1) Human Platelet Preparation: 50 mL of blood was drawn from drug free, consenting individuals, into a syringe containing 5 mL sodium citrate (4% w/v) and 7.5 mL warmed ACD (85 mM sodium citrate, 71 mM citric acid and 110 mM glucose). Blood was centrifuged at 102 g for 20 minutes to obtain platelet-rich plasma (PRP), which was then decanted and 104 prostacyclin (PGI2 125 μg/mL, solubilized in ethanol) added. Platelets were pelleted by centrifugation at 1413 g for 10 minutes, platelet poor plasma was discarded and the pellet resuspended in 25 mL Tyrode's-HEPES buffer (134 mM NaCl, 2.9 mM KCl, 0.34 mM Na2HPO4, 12 mM NaHCO3, 20 mM HEPES, 1 mM MgCl2 and 5 mM glucose pH 7.3), 3 mL of ACD and 10 μL PGI2 were added and then following centrifugation at 1413 g for 10 minutes, the platelet pellet was re-suspended to the appropriate cell density using Tyrode's buffer. Platelets were rested for 30 minutes at 30° C. to allow platelet responses to recover.
# Flow Cytometry: 5 μL platelets (2×10^8 cells/mL) was added to 42 μL HEPES-buffered saline with 1 mM Ca2+. To this, 0.5 μL zafirlukast (0.6 μM-10 μM) or montelukast (0.6 μM-10 μM) or vehicle (0.1% (v/v) DMSO) was added and incubated for 5 minutes. 1 μL anti-human CD62p (1:500 dilution) and 1 μL anti-fibrinogen FITC conjugate (1:500 dilution) or 2 μL of anti-PAC-1 antibody were added to samples. Platelets were treated with 5 μL CRP-XL (1 ug/mL) or 5 μL Tyrode's for 20 minutes in the dark. Samples were then fixed with 450 μL of 0.2% (v/v) paraformaldehyde and analyzed on an accuri C6 flow cytometer (BD Biosciences, UK), with the threshold set to 20,000. Platelet populations were gated and 10,000 events recorded.
# MDA-MB-231 cells = assay: PrestoBlue cell proliferation assay, MDA-MB-231; format: cell-based
# Description: (§2) Cells were plated at 6,000 cells/well in a 96-well plate and treated with the indicated concentration of zafirlukast 24 hours later. Cells were allowed to grow for an additional 24 hours before alterations in growth were measured by the PrestoBlue cell proliferation assay in triplicate. Fluorescence readings with an excitation at 570 nm and emission of 600 nm were collected and treated samples were converted to a percentage of the untreated controls. OVCar8 (human ovarian cancer cell line), HCT116 (human colon cancer), HeLa (cervical cancer cell line) and MDA-MB-231 (breast cancer cell line) cell lines were examined for their ability to inhibit cell proliferation. […] Table 1 illustrates the results of a cell proliferation assay testing zafirlukast against OVCar8 cells, HCT116 cells, HeLa cells and MDA-MB-231 cells.
# OVCar8 cells = assay: PrestoBlue cell proliferation assay, OVCar8; format: cell-based, human; details: OVCar8, ovarian cancer, 24 hours treatment
# Description: as §2
# [2] = test system: integrin αIIbβ3 on washed platelets; assay: Integrin activation (PAC-1 antibody binding) by flow cytometry; format: cell-based, human; details: CRP-XL stimulated
# Description: as §1, with “Platelets were rested for 30 minutes at 30° C. to allow platelet responses to recover.” left out
# Flow Cytometry: 5 μL platelets (2×10^8 cells/mL) was added to 42 μL HEPES-buffered saline with 1 mM Ca2+. […] Samples were then fixed with 450 μL of 0.2% (v/v) paraformaldehyde and analyzed on an accuri C6 flow cytometer (BD Biosciences, UK), with the threshold set to 20,000. Platelet populations were gated and 10,000 events recorded.
# Washed platelets (2×10^8 cells/mL) were incubated with vehicle, zafirlukast (0.6-10 μM) or montelukast (0.6-10 μM) for 5 minutes. […] Data were analyzed using one-way ANOVA, n=3.
# human washed platelets = assay: Collagen stimulated platelet aggregation; format: cell-based; details: collagen 1 μg/mL, 3 minutes
# Description: as §1
# Platelet Aggregation: 445 μL of washed platelets at (4×10^8 cells/mL) were incubated for 5 minutes with vehicle (0.1% (v/v) DMSO) or 54 zafirlukast or montelukast. 50 μL of collagen 1 μg/mL (final), was added and light transmission monitored for 3 minutes at 37° C. with constant stirring (1200 rpm) using an aggregometer (Chronolog, USA).
# Statistical analyses: All raw data was analyzed by 1-way ANOVA and where appropriate normalized to vehicle. GraphPad Prism was used to perform statistical analysis by ANOVA or students T test. The level of significance of p values is as follows, *p<0.05,**p<0.01, ***p<0.005. Data presented are mean+/−standard error of the mean.
# Zafirlukast inhibits platelet aggregation: Human washed platelets (4×10^8 cells/mL) were pre-treated with 0.1 μM-10 μM zafirlukast or vehicle. Platelets were stimulated with collagen 1 μg/mL and allowed to aggregate for 3 minutes. Aggregation traces representative of the response were obtained and dose responses compared.
smiles,measurement,setting,value
"COc1cc(C(=O)NS(=O)(=O)c2ccccc2C)ccc1Cc1cn(C)c2ccc(NC(=O)OC3CCCC3)cc12 [zafirlukast, 4-(5-cyclopentyloxycarbonylamino-1-methylindol-3-ylmethyl)-3-methoxy-N-o-tolylsulfonylbenzamide]",inhibitory range on TRX,thioredoxin (TRX),10 to 300 µM
same,fibrinogen binding (fluorescence),"[1]; 10 μM, CRP-XL stimulated, vehicle 12520 Au",3696 Au
same,inhibition at 10 µM,"[1]; Homo sapiens, Platelet, 10 μM, CRP-XL stimulated",64.5%
same,fibrinogen binding (in words),[1]; lower concentrations (below 10 μM),trend towards inhibition
same,pIC50,"MDA-MB-231 cells; Homo sapiens, MDA-MB-231, breast cancer, 24 hours treatment",4.00
same,sensitivity of cell proliferation (in words),"MDA-MB-231 cells; MDA-MB-231, compared with OVCar8 and HCT116",less sensitive
same,pIC50,"OVCar8 cells; Homo sapiens, OVCAR-8, 24 h",5.00 to 5.30
same,pIC50,OVCar8 cells,5.22
same,cell-surface bound PAC-1 antibody (fluorescence),"[2]; 10 μM, vehicle 1623 Au",748.5 Au
same,inhibition at 10 µM,"[2]; Homo sapiens, Platelet, PAC-1 binding",54%
same,inhibition of platelet aggregation (in words),human washed platelets; 0.1 μM,did not significantly inhibit
same,inhibition of platelet aggregation (in words),human washed platelets; 0.3 μM,did not significantly inhibit
same,"platelet aggregation, normalized to vehicle",human washed platelets; 0.6 μM,54.8%
same,"platelet aggregation, normalized to vehicle",human washed platelets; 1.25 μM,54.9%
same,"platelet aggregation, normalized to vehicle",human washed platelets; 2.5 μM,40.00%
same,"platelet aggregation, normalized to vehicle",human washed platelets; 5 μM,22.47%
same,"platelet aggregation, normalized to vehicle",human washed platelets; 10 μM,18.1%
same,inhibition at 0.6 µM,"human washed platelets; Homo sapiens, Platelet, 0.05 h, 0.6 μM",45%
same,inhibition at 1.25 µM,"human washed platelets; Homo sapiens, Platelet, 0.05 h, 1.25 μM",45%
same,inhibition at 2.5 µM,"human washed platelets; Homo sapiens, Platelet, 0.05 h, 2.5 μM",60%
same,inhibition at 5 µM,"human washed platelets; Homo sapiens, Platelet, 0.05 h, 5 μM",77.5%
same,inhibition at 10 µM,"human washed platelets; Homo sapiens, Platelet, 0.05 h, 10 μM",81.9%

# — patent US11872210B2, “Thiol isomerases inhibitors and use thereof” (WESTERN NEW ENGLAND UNIVERSITY, priority 2017, dated 2024)
